Test results published in US20230405003A1, “APPLICATION OF THYMIDINE DERIVATIVE IN PREPARATION OF DRUGS” (ONQUALITY PHARMACEUTICALS CHINA LTD., priority 2020, published 2023).
Read-outs that look alike come from different tables or passages of the source.

How the values were obtained:
[1] = tested on: hand-foot syndrome caused by capecitabine in Balb/c mice; assay: Mouse model of hand-foot syndrome caused by capecitabine, gel application or oral administration; type: in vivo; details: Mus musculus, 192 h, capecitabine 1000 mg/kg once daily, oral 250 mpk twice per day, 8 days
Procedure: A mouse animal model was established. 6-week aged male Balb/c mice were administered with capecitabine by daily gavage. After a few days, mice's paws developed hand-foot syndrome symptoms (similar to the results of the rat model, such as, in FIG. 13). Similar to the human body, mice developed hand-foot syndrome in the forepaws and hind paws after oral administration of capecitabine. The causes of the two are the same, and the disorder is also very similar. Therefore, mice are very good animal models for simulating the hand-foot syndrome caused by capecitabine.
After Balb/c mice were fed and adapted for one week (about 20 g), the mice were divided into groups, with 10 mice in each group. Then, the mice were subject to gavage administration. Capecitabine was dissolved in normal saline with pH=8, and the gavage dose was not greater than 0.3 mL at each time. After gavage, the blank gel was applied to the forepaws and the hind paws (about 4*0.5 cm*0.5 cm) in group of blank gel, and gels containing different drugs were applied to the forepaws and the hind paws (about 4*0.5 cm*0.5 cm) in group of administration. After application, the mice were fixed in Elizabethan collar for 4 hours. After 4 hours, the mice were released, wiped with clean water to remove any residual drug at the application site, and allowed back to the cage. The gavage and application tests are repeated daily until the group of blank has developed obvious hand-foot syndrome. […] Additionally, the thymidine derivative and the combination of thymidine derivative and uridine derivative were orally administered for observing the relief of the hand-foot syndrome. In examples 41-48, thymidine derivative and/or uridine derivative were/was applied, and in examples 49-52, thymidine derivative and/or uridine derivative were/was administered orally.
Table 5 lists the combinations of animal experiments of capecitabine and thymidine derivative (or a combination of thymidine derivative and uridine derivative) and the corresponding experimental results (wherein the data in the column of control rate=the occurrence rate of hand-foot syndrome in group of blank—the occurrence rate of hand-foot syndrome in group of administration).
The effect of thymidine derivative or a combination of thymidine derivative and uridine derivative on a mouse model with chemotherapeutic drug (capecitabine)-induced hand-foot syndrome was tested according to the method in Examples 41-52. Wherein, the drugs were administered transdermally for Examples 119-120 and orally for Examples 121-123.
The test thymidine derivative or the combination of thymidine derivative and uridine derivative, as well as the final concentration of the test compounds were shown in Table 9. Table 9 lists the combinations of animal experiments of capecitabine and the thymidine derivative gel (or a compounded gel of thymidine derivative and uridine derivative) and the corresponding experimental results (wherein the data in the column of control rate=the occurrence rate of hand-foot syndrome in Group of blank—the occurrence rate of hand-foot syndrome in Group of administration).

[2] = tested on: 5-FU-induced diarrhea in Balb/c mice; assay: 5-FU-induced diarrhea mouse model (175 mg/kg single i.p.); type: in vivo; details: 5-FU 175 mg/kg single i.p., 15 mpk gavage
Procedure: 7-8-week-old male Balb/c mice were used to establish a 5-FU induced diarrhea model to test the effect of the thymidine derivative or the combination of thymidine derivative and uridine derivative on the relief of diarrhea.
Modeling dose of 5-Fu: 175 mg/kg; single administration, intraperitoneal injection (ip.);
Administration mode of the compound to test (thymidine derivative or combination of thymidine derivative and uridine derivative): single administration, by gavage, advance administration of the compound to test at various time points prior to intraperitoneal injection of 5-FU. The compound to test was administered 1 h prior to the administration of 5-FU, a certain amount of 5-FU was injected intraperitoneally 1 h later, and the compound to test was administered once again 7 h after the injection of 5-FU.
The mice were fed and adapted for one week, and then divided into groups, with 10 mice in each group for administration test.
The mice in the Group of blank was injected with 0.9% NaCl, and evaluated the effect by observing the change of diarrhea grade, food uptake, and weight change. The severity of diarrhea was scored in accordance with the following standards: 0: normal feces, 1: soft feces, 2: slightly wet, soft feces, 3: wet, unformed feces, with moderate coloration in perianal region, 4: watery feces with heavy coloration of hair in perianal region. The severity of diarrhea was evaluated by occurrence scores of various grades of diarrhea (Scores 0 to 4) and average score of diarrhea. […] The models were stable, and satisfied the experimental requirements.
5-FU was dissolved in a 0.9% NaCl solution, the mice in the model group and the treatment group were all i.p. injected at a dose of 175 mg/kg/d, […]. While modeling of injection administration of 5-FU, the thymidine derivative or the combination of thymidine derivative and uridine derivative was administered by gavage, and the compounds to test were dissolved in a PBS solution containing 5% DMSO+1% HPMC. Body weight was weighed daily to count the weight change (Δ % BW, the weight changes recorded in the table were the values on Day 6), and the food was weighed daily to calculate the food uptake. The mice were daily observed for their clinical status, e.g., activity, diarrhea, hair, fighting, etc. After 6 days, the experiments were completed and statistically analyzed for the results.

SMILES: Cc1ccc(C(=O)c2ccc(CC(=O)O[C@H]3C[C@H](n4cc(C)c(=O)[nH]c4=O)O[C@@H]3CO)n2C)cc1 [T45]
- inhibition in vivo at 250 mg/kg ([1]; read-out: Control Rate Forepaws): 57.1%
- inhibition in vivo at 250 mg/kg ([1]; read-out: Control Rate Hindpaws): 42.9%
- Δ % BW (on Day 6) [2]: −0.34% ± 0.36%
- Survival Rate ([2]; 6 days): 100%
- Average Diarrhea Grade ([2]; 6 days, score 0-4): 1.4
